Test results published in EP4722205A1, “HETEROCYCLIC COMPOUND AND NOXIOUS ARTHROPOD-CONTROLLING COMPOSITION CONTAINING SAME” (Sumitomo Chemical Company, Limited, priority 2023, dated 2024).

Key:
Format in all cases: in vivo
[1] = tested on: housefly (Musca domestica); test: Test Method 8: coated container contact test, housefly; conditions: 24 h, 40 mg/m^2, female adults, after one (1) day, 25°C, read-out: mortality of insects
Protocol: (§1) Next, an efficacy of the present compound on controlling harmful arthropods is shown by Test examples. The following tests in the test examples below were conducted at 25°C.
(§2) Acetone solution in which test compounds are adjusted to 800 ppm are prepared, and the solution is poured into a container having an internal volume of 20 mL, and the solution is coated uniformly on an inner face of the container such that the test compound is made to be 40 mg/m^2, and the container is then dried.
Five (5) housefly (Musca domestica) female adults are placed in the container, and the cup is covered with the lid. After the prescribed timing is passed, the state of the housefly is examined, and the mortality of insects is calculated by the following equation. [formula]

[2] = tested on: diamondback moth (Plutella xylostella); test: Test Method 4: sprayed cabbage leaves fed to second instar diamondback moth; conditions: 120 h, second instar larvae, after 5 days, 25°C, read-out: mortality of insects
Protocol: as §1
Test compounds are made to a formulation according to a similar method to that described in the Formulation example 1, and thereto is added water containing 0.03 v/v% of Shindain (registered trademark) to prepare a diluted solution containing a prescribed concentration of the test compound.
(§3) Cabbage (Brassicae oleracea) seedling (on the developmental stage of the second to third true leaf) is planted in a cup, and the diluted solutions are sprayed into the seedling at a ratio of 20 mL/seedling. Thereafter, the stem and leaf thereof are cut out and then is installed into a cup that is covered with filter paper on the bed of the cup. Five (5) diamondback moth (Plutella xylostella) at the second instar larval stage are released into the cup. After 5 days, the number of the surviving insects is counted, and the mortality of insects is calculated by the following equation. [formula]

[3] = tested on: cotton worm (Spodoptera litura); test: Test Method 3: sprayed cabbage leaves fed to second instar cotton worm; conditions: 120 h, second instar larvae, after 5 days, 25°C, read-out: mortality of insects
Protocol: (§4) The following tests in the test examples below were conducted at 25°C.
as §3, with “cotton worm (Spodoptera litura)” for “diamondback moth (Plutella xylostella)”

[4] = tested on: common house mosquitos (Culex pipiens pallens); test: Test Method 12: mosquito larvae released into diluted solution; conditions: 24 h, last instar larvae, after 1 day, 25°C, read-out: controlling value
Protocol: as §4
Into the diluted solution, 30 common house mosquitos (Culex pipiens pallens) at the last instar larval stage are released, and after 1 day, the state of the house mosquito larvae is examined, and the mortality of insects is calculated by the following equation. [formula]

[5] = tested on: cotton aphids (Aphis gossypii); test: Test Method 11: foliar spray on cucumber seedling infested with cotton aphids (Formulation example 5); conditions: 120 h, spray 10 mL/seedling, examined after 5 days, 25°C, read-out: controlling value
[6] = tested on: diamondback moth (Plutella xylostella); test: Test Method 10: sprayed cabbage seedling, third instar diamondback moth (Formulation example 5); conditions: 144 h, third instar larvae, after 6 days, 25°C, read-out: controlling value
Protocol: as §4
(§5) Cabbage (Brassicae oleracea) seedling (on the developmental stage of the third to fourth true leaf) is planted in a cup, and the diluted solutions are sprayed into the seedling at a ratio of 20 mL/seedling. Thereafter, ten (10) diamondback moth (Plutella xylostella) at the third instar larval stage are released onto the seedling. After 6 days, the number of the surviving insects is counted, and the mortality of insects is calculated by the following equation. [formula]

[7] = tested on: cotton worm (Spodoptera litura); test: Test Method 9: sprayed cabbage seedling, third instar cotton worm (Formulation example 5); conditions: 144 h, third instar larvae, after 6 days, 25°C, read-out: controlling value
Protocol: as §4
as §5, with “cotton worm (Spodoptera litura)” for “diamondback moth (Plutella xylostella)”

[8] = tested on: Western corn rootworms (Diabrotica virgifera virgifera); test: Test Method 5: corn seedling immersion, Western corn rootworm; conditions: 120 h, read-out: mortality of insects
Protocol: as §1
Each 1 mg of the test compounds is dissolved into 50 µL of a mixed solution of polyoxyethylene sorbitan monolaurate and acetone (polyoxyethylene sorbitan monolaurate: acetone = 5 : 95 (v/v ratio)). Thereto is added water containing 0.03% by volume of Shindain (registered trademark) to prepare a diluted solution containing a prescribed concentration of the test compound.
A young entire seedling of Corns (Zea mays) is immersed into the diluted solution for 30 seconds. Thereafter, each two grains of the seedlings are installed in a plastic petri dish ([…]), and 10 Western corn rootworms (Diabrotica virgifera virgifera) at the second instar larval stage are released into the dish. After 5 days, the number of the dead insects is counted, and the mortality of insects is calculated by the following equation. Mortality(%) = (Numberofdeadinsects/10) × 100 [formula]

[9] = tested on: cotton aphids (Aphis gossypii); test: Test Method 1: foliar spray on cucumber seedling infested with cotton aphids (Formulation example 1); conditions: 120 h, spray 10 mL/seedling, examined after 5 days, 25°C, read-out: controlling value
[10] = tested on: German cockroach (Blattella germanica); test: Test Method 6: coated container contact test, German cockroach; conditions: 72 h, read-out: mortality of insects
Protocol: as §1
as §2, with “50” for “20”
Five (5) German cockroach (Blattella germanica) male adults are placed in the container, and the cup is covered with the lid. After the prescribed timing is passed, the state of the German cockroach is examined, and the mortality of insects is calculated by the following equation. [formula]

Row | Compound | mortality at 40 mg/m2 [1] [%] | mortality at 500 ppm [2] [%] | mortality at 500 ppm [3] [%] | mortality at 3.5 ppm [4] [%] | mortality at 50 ppm [5] [%] | mortality at 200 ppm [5] [%] | mortality at 50 ppm [6] [%] | mortality at 200 ppm [6] [%] | mortality at 50 ppm [7] [%] | mortality at 200 ppm [7] [%] | mortality at 200 ppm [8] [%] | mortality at 500 ppm [9] [%] | mortality at 40 mg/m2 [10] [%]
1 | CCS(=O)(=O)c1ccc(NC2CC2)nc1C(=O)N(C)c1nc2cc(F)c(F)c(F)c2s1 [compound 139] | ≥ 80 | ≥ 80 | ≥ 80 | ≥ 90 | ≥ 90 | ≥ 90 | ≥ 80 | ≥ 80 | ≥ 80 | ≥ 80 |  |  | 
2 | CCS(=O)(=O)c1c(C(=O)N(C)c2nc3ccc(F)c(F)c3s2)nc2ccc(I)cn12 [compound 33] | ≥ 80 | ≥ 80 | ≥ 80 | ≥ 90 | ≥ 90 | ≥ 90 | ≥ 80 | ≥ 80 | ≥ 80 | ≥ 80 | ≥ 80 | ≥ 90 | 
3 | CCS(=O)(=O)c1c(C(=O)N(C)c2nc3cc(F)c(F)c(F)c3s2)nc2ccc(Br)cn12 [compound 44] | ≥ 80 | ≥ 80 | ≥ 80 | ≥ 90 |  | ≥ 90 | ≥ 80 | ≥ 80 | ≥ 80 | ≥ 80 |  | ≥ 90 | ≥ 80
4 | CCS(=O)(=O)c1ccc(NC)nc1C(=O)N(C)c1nc2cc(F)c(F)c(F)c2s1 [compound 138] | ≥ 80 | ≥ 80 | ≥ 80 | ≥ 90 | ≥ 90 | ≥ 90 | ≥ 80 | ≥ 80 | ≥ 80 | ≥ 80 |  | ≥ 90 | 
5 | CCS(=O)(=O)c1c(C(=O)N(C)c2nc3c(F)c(F)c(F)c(F)c3s2)nc2ccc(I)cn12 [compound 77] | ≥ 80 | ≥ 80 | ≥ 80 |  |  |  |  |  | ≥ 80 | ≥ 80 | ≥ 80 |  | 
6 | CCS(=O)(=O)c1c(C(=O)N(C)c2nc3cc(F)c(F)cc3s2)nc2ccc(I)cn12 [compound 34] | ≥ 80 | ≥ 80 | ≥ 80 | ≥ 90 | ≥ 90 | ≥ 90 | ≥ 80 | ≥ 80 | ≥ 80 | ≥ 80 | ≥ 80 | ≥ 90 | 
7 | CCS(=O)(=O)c1c(C(=O)N(C)c2nc3cc(Cl)c(F)cc3s2)nc2ccc(I)cn12 [compound 101] |  | ≥ 80 |  |  |  |  | ≥ 80 | ≥ 80 | ≥ 80 | ≥ 80 | ≥ 80 |  | 
8 | CCS(=O)(=O)c1c(C(=O)N(C)c2nc3ccc(C(F)(F)F)cc3s2)nc2ccc(I)cn12 [compound 26] |  | ≥ 80 |  | ≥ 90 | ≥ 90 | ≥ 90 | ≥ 80 | ≥ 80 |  |  | ≥ 80 | ≥ 90 | 
